BindingDB's records for doi:10.1042/0264-6021:3510095 (University of Dundee, 2001)
pIC50: −log10 of the molar value.

Test: Inhibition of His-tagged human PDK1 expressed in Sf21 cells

pIC50: 6.52
SMILES: CCCCCCOC(=O)[C@@]1(O)C[C@H]2O[C@]1(C)n1c3ccccc3c3c4c(c5c6ccccc6n2c5c31)C(=O)NC4 [KT-5720]
